Here are results for 46 molecules from patent publication US8309593B2, “2-acylaminopropoanol-type glucosylceramide synthase inhibitors” (Genzyme Corporation, priority 2008, dated 2012).

One assay has as its system GM3. Description: GM3 Elisa assay. It is filed as cell-based. The following applies: 48 h, Table 1; B16-FO cells, 2 days with compound; read-out: IC50_uM_Mean. The protocol: B16-FO cells from ATCC (American Tissue Culture Collection) were grown in DMEM media (ATCC) with 10% Fetal Bovine Serum (Hyclone) and Pen/Step/Glutamine (Biowhittaker). 4000 cells per well were plated on collagen coated plates (BD) and allowed to attach for 6 hours in an incubator (37 degrees, 5% CO2). After 6 hours the compounds and controls were added to the wells, the plates mixed and returned to the incubator for 2 days. Day of assay the cells were fixed for 20 minutes with 1% formaldehyde and then washed with Tris Buffered Saline (TBS) 3 times, 150 μl of TBS was left in the wells and 50 μl of goat serum (Invitrogen) was added, the plates mixed and incubated for 1 hour at room temperature. The plates were flicked and the cells incubated with the monoclonal Antibody to GM3 (NeuAc) (Cosmo) for 45 minutes as room temperature. The plates were then washed 3 times with TBS, leaving 150 μl of TBS in the wells and Peroxidase AffinPure F (ab′) 2 frag Gt Anti-mouse IgM, μ Chain Specific (Jackson Immuno Research) was added in 50 μl, the plates mixed and incubated for 45 minutes at room temperature. The plates were washed 3 times with TBS, flicked and blotted and 100 μl of Quantablu (Pierce) was added to the wells and incubated for 1 hour then read on a Fluorometer at Ex 325 and Em 420. The data was then analyzed using standard programs.
On to `COc1ccc(OCCC(=O)N[C@H](CN2CCCC2)[C@H](O)c2ccc3c(c2)OCCO3)cc1` [Compound 61, N-((1R,2R)-1-(2,3-dihydrobenzo[β][1,4]dioxin-6-yl)-1-hydroxy-3-(pyrrolidin-1-yl)propan-2-yl)-3-(4-methoxyphenoxy)propanamide], for which the IC50 is no more than 0.1 µM. With `COc1cccc(CNC(=O)N[C@H](CN2CCCC2)[C@H](O)c2ccc3c(c2)OCCO3)c1` [Compound 80, 1-((1R,2R)-1-(2,3-dihydrobenzo[β][1,4]dioxin-6-yl)-1-hydroxy-3-(pyrrolidin-1-yl)propan-2-yl)-3-(3-methoxybenzyl)urea], the IC50 is no more than 0.1 µM. On the same count and under the same terms, for `O=C(CCCc1nc2ccccc2s1)N[C@H](CN1CCCC1)[C@H](O)c1ccc2c(c1)OCCO2` [Compound 101, 4-(benzo[d]thiazol-2-yl)-N-((1R,2R)-1-(2,3-dihydrobenzo[1,4]dioxin-6-yl)-1-hydroxy-3-(pyrrolidin-1-yl)propan-2-yl)butanamide] the value was no more than 0.1 µM. Turning to `CC(C)(C)c1ccc(C(=O)CCCCCC(=O)N[C@H](CN2CCCC2)[C@H](O)c2ccc3c(c2)OCCO3)cc1` [Compound 160, 7-(4-tert-butylphenyl)-N((1R,2R)-1-(2,3-dihydrobenzo[β][1,4]dioxin-6-yl)-1-hydroxy-3-(pyrrolidin-1-yl)propan-2-yl)-7-oxoheptanamide], the IC50 is 0.1 to 1 µM. Consider `CC(C)Oc1ccc(C(=O)CCC(=O)N[C@H](CN2CCCC2)[C@H](O)c2ccc3c(c2)OCCO3)cc1` [Compound 162, N-((1R,2R)-1-(2,3-dihydrobenzo[β][1,4]dioxin-6-yl)-1-hydroxy-3-(pyrrolidin-1-yl)propan-2-yl)-4-(4-isopropoxyphenyl)-4-oxobutanamide], for which the IC50 was no more than 0.1 µM. Regarding `O=C(CCC(=O)c1ccc(C(F)(F)F)cc1)N[C@H](CN1CCCC1)[C@H](O)c1ccc2c(c1)OCCO2` [Compound 176, N-((1R,2R)-1-(2,3-dihydrobenzo[β][1,4]dioxin-6-yl)-1-hydroxy-3-(pyrrolidin-1-yl)propan-2-yl)-4-oxo-4-(4-(trifluoromethyl)phenyl)butanamide (2S,3S)-2,3-dihydroxysuccinate], the IC50 is no more than 0.1 µM. As to `CCc1ccc(OCCC(=O)N[C@H](CN2CCCC2)[C@H](O)c2ccc3c(c2)OCCO3)cc1` [Compound 188, N-((1R,2R)-1-(2,3-dihydrobenzo[b][1,4]dioxin-6-yl)-1-hydroxy-3-(pyrrolidin-1-yl)propan-2-yl)-3-(4-ethylphenoxy)propanamide (2R,3R)-2,3-dihydroxysuccinate], the IC50 was in the range of 0.1 to 1 µM. With `CCC(=O)c1ccc(OCCC(=O)N[C@H](CN2CCCC2)[C@H](O)c2ccc3c(c2)OCCO3)cc1` [Compound 189, N-((1R,2R)-1-(2,3-dihydrobenzo[b][1,4]dioxin-6-yl)-1-hydroxy-3-(pyrrolidin-1-yl)propan-2-yl)-3-(4-propionylphenoxy)propanamide (2R,3R)-2,3-dihydroxysuccinate], the IC50 fell in the range of 0.1 to 1 µM.

The assay is the same for the next values; noted with them: Table 3 (title: IC 50 Values); read-out: IC50_uM_Mean.
As for `CCNC[C@@H](NC(=O)CCCCCC(=O)c1ccc(OC)cc1)C(O)c1ccc2c(c1)OCCO2` (stereo partly shown) [Compound 467], the IC50 lay in the range of 0.1 to 1 µM. Regarding `O=C(Cc1ccc(OC(F)(F)F)cc1)N[C@H](CN1CCCC1)[C@H](O)c1ccc(Cl)s1` [Compound 492], the IC50 fell in the range of 3 to 10 µM. `CCCCCCCC(=O)N[C@H](CN1CC[C@@H](F)C1)[C@H](O)c1ccc2c(c1)OCCO2` [Compound 504]: the IC50 was 0.1 to 1 µM. As for `CCCCCCCC(=O)N[C@H](CN1CC[C@H](F)C1)[C@H](O)c1ccc2c(c1)OCCO2` [Compound 510], the IC50 was in the range of 3 to 10 µM. On the same count and under the same terms, as for `CCCCCCCC(=O)N[C@H](CN1CC[C@@H](O)C1)[C@@H](O)c1ccc2c(c1)OCCO2` [Compound 512], the figure is 1 to 3 µM; as for `CCCCCCCC(=O)N[C@H](CN1CC[C@H](O)C1)[C@@H](O)c1ccc2c(c1)OCCO2` [Compound 515], no more than 0.1 µM. On the same count and under the same terms, for `CCCCCCCC(=O)N[C@H](CN1CC2CC2C1)[C@@H](O)c1ccc2c(c1)OCCO2` (stereo partly shown) [Compound 517] the value was 0.1 to 1 µM. As to `COc1ccc(C(=O)CCOCCC(=O)N[C@H](CN2CC[C@@H](O)C2)[C@H](O)c2ccc3c(c2)OCCO3)cc1` [Compound 518], the IC50 lay in the range of 0.1 to 1 µM. The same measure, in the same setting: for `COc1ccc(C(=O)CCCCCC(=O)N[C@H](CN2CCC[C@@H]2C)C(O)c2ccc3c(c2)OCCO3)cc1` (stereo partly shown) [Compound 525] the value was no more than 0.1 µM.

As for `COc1ccc(OCCC(=O)N[C@H](CN2CCC[C@@H]2C)C(O)c2ccc3c(c2)OCCO3)cc1` (stereo partly shown) [Compound 526], the IC50 was 0.1 to 1 µM. Take `CCCCCCCC(=O)N[C@H](CN1CCC[C@@H]1C)C(O)c1ccc2c(c1)OCCO2` (stereo partly shown) [Compound 527]: the IC50 was in the range of 1 to 3 µM.

Regarding `COc1ccc(OCCC(=O)N[C@H](CN2CCC[C@H]2C)C(O)c2ccc3c(c2)OCCO3)cc1` (stereo partly shown) [Compound 528], the IC50 lay within 1 to 3 µM.

For the molecule `COc1ccc(C(=O)CCCCCC(=O)N[C@H](CN2CCC[C@H]2C)C(O)c2ccc3c(c2)OCCO3)cc1` (stereo partly shown) [Compound 529], the IC50 is no more than 0.1 µM. Regarding `CCCCCCCC(=O)N[C@H](CN1CCC[C@H]1C)C(O)c1ccc2c(c1)OCCO2` (stereo partly shown) [Compound 530], the IC50 was 3 to 10 µM. As to `COc1ccc(C(=O)CCCCCC(=O)NC(CN2CC[C@@H](F)C2)[C@H](O)c2ccc3c(c2)OCCO3)cc1` (stereo partly shown) [Compound 531], the IC50 is no more than 0.1 µM. Turning to `COC[C@@H]1CCCN1C[C@@H](NC(=O)CCCCCC(=O)c1ccc(OC)cc1)C(O)c1ccc2c(c1)OCCO2` (stereo partly shown) [Compound 533], the IC50 was 0.1 to 1 µM. For the molecule `CCCCCCCC(=O)N[C@H](CN1CCC[C@H]1COC)C(O)c1ccc2c(c1)OCCO2` (stereo partly shown) [Compound 534], the IC50 was 3 to 10 µM. For `COC[C@@H]1CCCN1C[C@@H](NC(=O)CCOc1ccc(OC)cc1)C(O)c1ccc2c(c1)OCCO2` (stereo partly shown) [Compound 535], the IC50 fell in the range of 3 to 10 µM. Take `COc1ccc(C(=O)CCCCCC(=O)N[C@H](CN2CC3CC3C2)[C@@H](O)c2ccc3c(c2)OCCO3)cc1` (stereo partly shown) [Compound 537]: the IC50 was no more than 0.1 µM.

Take `COC[C@H]1CCCN1C[C@@H](NC(=O)CCOc1ccc(OC)cc1)[C@@H](O)c1ccc2c(c1)OCCO2` [Compound 538]: the IC50 lay in the range of 3 to 10 µM. In the case of `COC[C@H]1CCCN1C[C@@H](NC(=O)CCCCCC(=O)c1ccc(OC)cc1)[C@@H](O)c1ccc2c(c1)OCCO2` [Compound 539], the IC50 is 3 to 10 µM. Same read-out and setting: for `CCCCCCCC(=O)N[C@H](CN1CCC[C@@H]1COC)[C@@H](O)c1ccc2c(c1)OCCO2` [Compound 540] the value was 3 to 10 µM; for `COc1ccc(C(=O)CCCCCC(=O)N[C@H](CN2[C@H](C)CC[C@@H]2C)[C@H](O)c2ccc3c(c2)OCCO3)cc1` [Compound 548], 1 to 3 µM. In the case of `CCCCCCCC(=O)N[C@H](CN1[C@H](C)CC[C@@H]1C)[C@H](O)c1ccc2c(c1)OCCO2` [Compound 549], the IC50 was in the range of 3 to 10 µM. The same measure, in the same setting: for `COc1ccc(OCCC(=O)N[C@H](CN2[C@H](C)CC[C@@H]2C)[C@H](O)c2ccc3c(c2)OCCO3)cc1` [Compound 550] the value was 3 to 10 µM.

For `COc1ccc(OCCC(=O)N[C@H](CN2CCCC2(C)C)[C@@H](O)c2ccc3c(c2)OCCO3)cc1` [Compound 551], the IC50 lay within 3 to 10 µM. With `COc1ccc(C(=O)CCCCCC(=O)N[C@H](CN2CCCC2(C)C)[C@@H](O)c2ccc3c(c2)OCCO3)cc1` [Compound 552], the IC50 was 1 to 3 µM. Turning to `CCCCCCCC(=O)N[C@H](CN1CCCC1(C)C)[C@@H](O)c1ccc2c(c1)OCCO2` [Compound 553], the IC50 lay within 3 to 10 µM. Take `O=C(CCCCS(=O)(=O)C1CCCCC1)N[C@H](CN1CCCC1)[C@@H](O)c1ccc2c(c1)OCCO2` [Compound 557]: the IC50 lay in the range of 3 to 10 µM.

For the molecule `O=C(CCCCCC1CCOCC1)N[C@H](CN1CCCC1)[C@@H](O)c1ccc2c(c1)OCCO2` [Compound 559], the IC50 was 0.1 to 1 µM. Turning to `O=C(CCCCCC(=O)c1ccc(F)cc1)N[C@H](CN1CC[C@@H](F)C1)[C@@H](O)c1ccc2c(c1)OCCO2` [Compound 565], the IC50 is no more than 0.1 µM. On to `Cc1nccn1C[C@@H](NC(=O)CCCCCC(=O)c1ccc(F)cc1)[C@@H](O)c1ccc2c(c1)OCCO2` [Compound 569], for which the IC50 was 3 to 10 µM.

Regarding `O=C(CCCCS(=O)(=O)C1CCCCC1)N[C@H](CN1CC[C@@H](F)C1)[C@@H](O)c1ccc(OCc2ccccc2)cc1` [Compound 572], the IC50 fell in the range of 0.1 to 1 µM. With `O=C(CCCCCC1CCOCC1)N[C@H](CN1CC[C@@H](F)C1)[C@@H](O)c1cccc(OCc2ccccc2)c1` [Compound 574], the IC50 is 0.1 to 1 µM.

As for `O=C(CCCCOC1CCOCC1)N[C@H](CN1CC[C@@H](F)C1)[C@@H](O)c1ccc(CCc2ccccc2)cc1` [Compound 575], the IC50 is 0.1 to 1 µM. As for `CCCCOc1ccc([C@H](O)[C@@H](CN2CC[C@@H](F)C2)NC(=O)CCCCCCCOC)cc1` [Compound 584], the IC50 lay in the range of 0.1 to 1 µM. Same read-out and setting: as for `CCCCOc1ccc([C@H](O)[C@@H](CN2CC[C@H](O)C2)NC(=O)CCCCCCCOC)cc1` [Compound 586], the figure is no more than 0.1 µM; as for `CCCCCCCC(=O)N[C@H](CN1CC(OCCC)C1)[C@H](O)c1ccc2c(c1)OCCO2` [Compound 596], 3 to 10 µM.
